This is an account of results in KR20230001519A, “근위 단백질 변형 반응을 이용한 신규한 약물 결합 단백질의 동정” (서울대학교산학협력단, priority 2021, dated 2023).

Molecules are shown by their SMILES. Where a name gives a salt, the structure may show the parent alone.

For assay [1], the system named is HaloTag protein (할로택 단백질). Briefly: In vitro competition assay of HaloTag ligand (dansyl-HTL, in-gel fluorescence). The assay is classed as binding. Conditions: competition with dansyl-HTL; purified HaloTag 10 μM, compound 10 μM; data not shown.
The subject of assay [2] is K562 cells (K562 세포). The assay is described as follows: CCK-8 growth inhibition, K562. Format: cell-based, human. Conditions: K562, 72 h.
Assay [3] relates to Ba/F3 cells (Ba/F3 세포). Briefly: CCK-8 growth inhibition, Ba/F3. The assay is classed as cell-based, mouse. Conditions: Ba/F3, 72 h.
Assay [4] addresses T1, TOM20-KDABL1 (Homo sapiens, UniProt P00519).
T1 construct: KDABL1, 아미노산 239-512, Uniprot ID: P00519; expressed in transfected cells
T1 sequence (P00519 239-512): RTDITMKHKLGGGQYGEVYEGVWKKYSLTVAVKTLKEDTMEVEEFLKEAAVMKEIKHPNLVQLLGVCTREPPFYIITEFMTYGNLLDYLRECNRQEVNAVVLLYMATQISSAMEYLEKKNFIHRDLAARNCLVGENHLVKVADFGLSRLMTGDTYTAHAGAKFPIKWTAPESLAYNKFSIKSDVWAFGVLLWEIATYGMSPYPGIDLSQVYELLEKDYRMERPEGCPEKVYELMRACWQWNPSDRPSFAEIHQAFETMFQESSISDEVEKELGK
The assay is described as follows: In cellulo mitochondrial translocation of HT-TurbID to TOM20-KDABL1. Format: cell-based. Conditions: data not shown.

The target of assay [5] is T2, TOM20-HA-KDABL1 (Homo sapiens, UniProt P00519).
T2 construct: KDABL1, 아미노산 239-512, Uniprot ID: P00519; expressed in transfected cells
T2 sequence (P00519 239-512): T1 sequence (P00519 239-512)
Briefly: Proximity biotinylation of TOM20-HA-KDABL1 by HT-TurbID. The assay is classed as cell-based. Conditions: HT-TurbID in cytosol; data not shown.

In assay [6] the test system is HT-TurbID stably expressing K562 cells (HT-TurbID를 안정적으로 발현하는 K562 세포주). Briefly: Biotinylation in K562 cells stably expressing HT-TurbID (streptavidin-HRP western blot). The assay is classed as cell-based, human. On the technique in general: In western blotting, separated proteins are transferred to a membrane and probed.
The test system of assay [7] is dasatinib binding proteins of K562 cells (K562 세포의 다사티닙 결합 단백질). The assay is described as follows: PROCID mass analysis of biotinylated proteins (dasatinib interactors, group I). The assay is classed as cell-based, Homo sapiens. The note with it: K562, 500 nM, 3 h.
Assay [8] concerns the target T3, SMARCA2 (Homo sapiens, UniProt P51531).
T3 construct: endogenous in cells; host or cells: K562 stably expressing HT-V5-TurbID
Briefly: PROCID mass analysis, SMARCA2. The assay is classed as cell-based.

Assay [9] relates to ABL1. Briefly: PROCID mass analysis, ABL1. Format: cell-based, Homo sapiens. Conditions: ABL1, K562.
Assay [10] deals with T4, ABL2 (Homo sapiens, UniProt P42684).
T4 construct: endogenous in cells; host or cells: K562 stably expressing HT-V5-TurbID
Briefly: PROCID mass analysis, ABL2. Format: cell-based. Conditions: ABL2, K562.

Assay [11] has as its target T5, BTK (Homo sapiens, UniProt Q06187).
T5 construct: endogenous in cells; host or cells: K562 stably expressing HT-V5-TurbID
The assay is described as follows: PROCID mass analysis, BTK. The assay is classed as cell-based.

Assay [12] has as its target T6, RIOK1 (Homo sapiens, UniProt Q9BRS2).
T6 construct: endogenous in cells; host or cells: K562 stably expressing HT-V5-TurbID
T6 sequence (Q9BRS2 1-568): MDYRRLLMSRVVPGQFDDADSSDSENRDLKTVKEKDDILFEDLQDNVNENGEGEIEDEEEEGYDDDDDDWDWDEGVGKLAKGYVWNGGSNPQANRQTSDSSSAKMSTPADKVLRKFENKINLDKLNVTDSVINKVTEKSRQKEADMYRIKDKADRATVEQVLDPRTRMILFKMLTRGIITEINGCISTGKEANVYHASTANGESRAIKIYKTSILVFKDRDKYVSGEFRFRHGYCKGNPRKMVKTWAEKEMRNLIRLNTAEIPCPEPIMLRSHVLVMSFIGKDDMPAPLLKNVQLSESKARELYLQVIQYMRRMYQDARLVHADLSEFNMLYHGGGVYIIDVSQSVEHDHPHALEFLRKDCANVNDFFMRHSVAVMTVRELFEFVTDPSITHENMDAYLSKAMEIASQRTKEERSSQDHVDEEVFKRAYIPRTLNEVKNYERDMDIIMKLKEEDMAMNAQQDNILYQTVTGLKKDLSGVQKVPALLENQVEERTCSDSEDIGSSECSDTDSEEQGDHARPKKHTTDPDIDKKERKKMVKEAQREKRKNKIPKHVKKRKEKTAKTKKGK
The assay is described as follows: PROCID mass analysis, RIOK1. Format: cell-based. The note with it: RIOK1, K562.

The target of assay [13] is T7, BTK (Mus musculus, UniProt P35991). Briefly: PL-IP biotinylation of BTK-mCherry. The assay is classed as cell-based.
The target of assay [14] is T8, CSK (Homo sapiens, UniProt P41240). Briefly: PL-IP biotinylation of CSK-EGFP. The assay is classed as cell-based.
Assay [15] concerns the target T7, BTK. The assay is described as follows: In cellulo translocation assay, BTK-mCherry to HT-TurbID-MoA. The assay is classed as cell-based. Also noted: host or cells: U2OS (translocation, A16; reproduced in COS-7).
Assay [16] has as its target T8, CSK. The assay is described as follows: In cellulo translocation assay, CSK-EGFP to HT-TurbID-MoA. Format: cell-based. Also noted: host or cells: U2OS (translocation, A17; reproduced in COS-7).
Assay [17] addresses T8, CSK. Briefly: PROCID mass analysis, CSK. Also noted: endogenous in cells; host or cells: K562 stably expressing HT-V5-TurbID. Format: cell-based.
Assay [18] concerns the target T9, KDABL1 (Homo sapiens, UniProt P00519).
T9 sequence (P00519 239-512): T1 sequence (P00519 239-512)
The assay is described as follows: Proximity biotinylation of HA-KDABL1 by HT-TurbID (PL-IP, western blot). Also noted: KDABL1, 아미노산 239-512, Uniprot ID: P00519; expressed in transfected cells; host or cells: HEK293T (PL-IP, A6). Format: cell-based. Conditions: HEK293T, 500 nM, 3 h; biotin 100 μM, 30 min; SA-HRP western blot.

Assay [19] addresses T9, KDABL1. Briefly: In cellulo translocation assay of KDABL1 to mitochondrial HT-TurbID-MoA (confocal). Conditions: U2OS, 500 nM, 3 h. The assay is classed as cell-based. Also noted: KDABL1, 아미노산 239-512, Uniprot ID: P00519; expressed in transfected cells; host or cells: U2OS (translocation, A4).
Assay [20] has as its target T10, ABDSMARCA2 (Homo sapiens, UniProt P51531).
T10 construct: ABD SMARCA2(736-901aa 헬리카제-ATP 결합 도메인)-HA; expressed in transfected cells; host or cells: HEK293-AD
The assay is described as follows: Translocation and PL-IP assays with ATP binding domain of SMARCA2. Format: cell-based. The note with it: concluded from translocation of ABDSMARCA2 to mitochondria-targeted HT-TurbID.

For assay [21], the target named is T8, CSK. The arrangement: host or cells: U2OS (translocation, A17; reproduced in COS-7); HEK293T (PL-IP, A19). Conditions: in vitro characterization; cited from earlier work.
The mark [22] stands for this setting: HEK293T, 3 h, SA-HRP western blot.

T7 sequence (P35991 whole entry): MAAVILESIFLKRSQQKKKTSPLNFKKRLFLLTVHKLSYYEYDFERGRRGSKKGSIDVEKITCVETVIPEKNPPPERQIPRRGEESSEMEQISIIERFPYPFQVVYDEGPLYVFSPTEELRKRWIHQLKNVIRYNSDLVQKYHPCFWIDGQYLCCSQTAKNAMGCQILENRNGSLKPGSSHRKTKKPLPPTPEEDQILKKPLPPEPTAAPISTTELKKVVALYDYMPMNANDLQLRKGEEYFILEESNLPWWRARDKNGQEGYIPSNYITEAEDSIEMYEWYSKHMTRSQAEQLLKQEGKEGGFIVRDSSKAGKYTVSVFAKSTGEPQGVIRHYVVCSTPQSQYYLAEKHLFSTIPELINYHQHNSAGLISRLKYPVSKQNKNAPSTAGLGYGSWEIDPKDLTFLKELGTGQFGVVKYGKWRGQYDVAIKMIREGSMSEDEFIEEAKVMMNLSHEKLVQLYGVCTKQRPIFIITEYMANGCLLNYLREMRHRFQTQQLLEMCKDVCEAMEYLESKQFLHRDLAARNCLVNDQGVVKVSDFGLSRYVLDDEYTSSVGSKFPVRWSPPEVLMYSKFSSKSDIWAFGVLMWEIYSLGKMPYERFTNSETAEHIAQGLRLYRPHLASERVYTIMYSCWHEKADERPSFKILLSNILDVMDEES
T8 sequence (P41240 whole entry): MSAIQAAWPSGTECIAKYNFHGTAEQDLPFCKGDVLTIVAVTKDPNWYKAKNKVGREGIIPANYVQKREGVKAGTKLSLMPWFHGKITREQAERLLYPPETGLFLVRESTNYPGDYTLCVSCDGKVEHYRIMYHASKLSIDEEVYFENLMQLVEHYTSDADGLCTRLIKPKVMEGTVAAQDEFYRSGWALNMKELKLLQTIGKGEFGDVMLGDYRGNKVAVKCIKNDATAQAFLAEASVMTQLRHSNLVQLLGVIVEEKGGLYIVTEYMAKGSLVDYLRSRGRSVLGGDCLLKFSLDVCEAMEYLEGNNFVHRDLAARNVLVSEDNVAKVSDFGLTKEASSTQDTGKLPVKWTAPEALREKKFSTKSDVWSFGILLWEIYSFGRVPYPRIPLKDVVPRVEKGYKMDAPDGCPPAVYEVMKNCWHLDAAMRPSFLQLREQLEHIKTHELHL
T5 sequence (Q06187 whole entry): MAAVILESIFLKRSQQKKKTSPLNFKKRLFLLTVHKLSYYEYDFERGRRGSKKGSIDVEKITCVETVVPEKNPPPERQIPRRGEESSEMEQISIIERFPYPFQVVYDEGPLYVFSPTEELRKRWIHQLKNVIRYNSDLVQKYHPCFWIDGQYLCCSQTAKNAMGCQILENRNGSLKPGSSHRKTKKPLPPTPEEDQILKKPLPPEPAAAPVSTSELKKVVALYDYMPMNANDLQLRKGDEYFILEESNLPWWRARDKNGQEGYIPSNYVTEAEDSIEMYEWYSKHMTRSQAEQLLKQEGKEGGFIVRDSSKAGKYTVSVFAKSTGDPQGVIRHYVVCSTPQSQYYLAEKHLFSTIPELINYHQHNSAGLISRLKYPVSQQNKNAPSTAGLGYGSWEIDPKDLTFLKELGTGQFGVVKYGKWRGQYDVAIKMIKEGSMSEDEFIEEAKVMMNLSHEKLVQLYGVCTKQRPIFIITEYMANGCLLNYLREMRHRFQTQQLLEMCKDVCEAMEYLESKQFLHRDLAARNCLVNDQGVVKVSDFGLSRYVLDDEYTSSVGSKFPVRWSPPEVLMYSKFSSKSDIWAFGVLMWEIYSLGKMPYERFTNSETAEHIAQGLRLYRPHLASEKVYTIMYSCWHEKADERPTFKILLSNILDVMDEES
T3 sequence (P51531 whole entry): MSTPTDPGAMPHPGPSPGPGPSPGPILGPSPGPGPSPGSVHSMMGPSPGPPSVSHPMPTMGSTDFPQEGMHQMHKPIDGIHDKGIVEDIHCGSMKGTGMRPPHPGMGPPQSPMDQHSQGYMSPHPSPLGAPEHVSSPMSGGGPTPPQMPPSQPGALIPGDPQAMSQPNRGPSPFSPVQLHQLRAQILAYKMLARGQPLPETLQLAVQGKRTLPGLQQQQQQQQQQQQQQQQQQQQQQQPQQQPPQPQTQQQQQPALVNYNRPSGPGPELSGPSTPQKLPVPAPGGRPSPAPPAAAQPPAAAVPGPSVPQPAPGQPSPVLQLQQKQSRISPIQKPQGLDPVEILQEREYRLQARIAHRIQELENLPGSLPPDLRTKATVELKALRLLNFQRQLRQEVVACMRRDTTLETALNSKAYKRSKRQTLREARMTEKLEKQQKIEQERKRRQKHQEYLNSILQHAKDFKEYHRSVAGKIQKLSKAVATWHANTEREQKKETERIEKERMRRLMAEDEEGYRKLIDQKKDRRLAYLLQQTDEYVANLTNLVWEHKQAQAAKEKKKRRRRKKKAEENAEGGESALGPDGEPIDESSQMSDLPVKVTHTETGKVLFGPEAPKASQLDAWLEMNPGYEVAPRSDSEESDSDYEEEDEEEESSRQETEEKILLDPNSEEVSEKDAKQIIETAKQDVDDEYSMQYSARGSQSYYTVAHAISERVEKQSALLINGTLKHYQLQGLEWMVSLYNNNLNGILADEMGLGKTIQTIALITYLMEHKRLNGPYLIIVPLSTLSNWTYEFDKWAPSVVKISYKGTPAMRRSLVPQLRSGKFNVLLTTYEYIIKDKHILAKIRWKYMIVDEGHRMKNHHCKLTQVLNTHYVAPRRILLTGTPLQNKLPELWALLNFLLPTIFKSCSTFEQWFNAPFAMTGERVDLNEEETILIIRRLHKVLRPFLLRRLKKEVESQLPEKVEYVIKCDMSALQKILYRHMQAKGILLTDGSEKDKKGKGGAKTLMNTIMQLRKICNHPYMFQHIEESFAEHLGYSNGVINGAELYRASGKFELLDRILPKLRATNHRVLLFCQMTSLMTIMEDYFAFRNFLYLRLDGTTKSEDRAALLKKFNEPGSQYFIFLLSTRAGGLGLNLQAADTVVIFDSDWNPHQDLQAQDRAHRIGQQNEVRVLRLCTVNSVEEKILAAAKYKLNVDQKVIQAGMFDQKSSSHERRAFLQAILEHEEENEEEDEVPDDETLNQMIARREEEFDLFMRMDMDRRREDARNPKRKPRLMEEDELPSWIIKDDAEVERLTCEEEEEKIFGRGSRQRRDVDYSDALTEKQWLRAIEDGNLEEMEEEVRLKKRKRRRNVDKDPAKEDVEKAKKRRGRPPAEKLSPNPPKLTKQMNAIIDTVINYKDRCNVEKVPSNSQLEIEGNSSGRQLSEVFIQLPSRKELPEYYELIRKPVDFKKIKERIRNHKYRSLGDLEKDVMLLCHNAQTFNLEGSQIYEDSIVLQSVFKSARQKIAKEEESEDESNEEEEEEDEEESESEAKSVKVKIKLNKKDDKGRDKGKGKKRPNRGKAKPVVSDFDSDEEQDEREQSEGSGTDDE
T4 sequence (P42684 whole entry): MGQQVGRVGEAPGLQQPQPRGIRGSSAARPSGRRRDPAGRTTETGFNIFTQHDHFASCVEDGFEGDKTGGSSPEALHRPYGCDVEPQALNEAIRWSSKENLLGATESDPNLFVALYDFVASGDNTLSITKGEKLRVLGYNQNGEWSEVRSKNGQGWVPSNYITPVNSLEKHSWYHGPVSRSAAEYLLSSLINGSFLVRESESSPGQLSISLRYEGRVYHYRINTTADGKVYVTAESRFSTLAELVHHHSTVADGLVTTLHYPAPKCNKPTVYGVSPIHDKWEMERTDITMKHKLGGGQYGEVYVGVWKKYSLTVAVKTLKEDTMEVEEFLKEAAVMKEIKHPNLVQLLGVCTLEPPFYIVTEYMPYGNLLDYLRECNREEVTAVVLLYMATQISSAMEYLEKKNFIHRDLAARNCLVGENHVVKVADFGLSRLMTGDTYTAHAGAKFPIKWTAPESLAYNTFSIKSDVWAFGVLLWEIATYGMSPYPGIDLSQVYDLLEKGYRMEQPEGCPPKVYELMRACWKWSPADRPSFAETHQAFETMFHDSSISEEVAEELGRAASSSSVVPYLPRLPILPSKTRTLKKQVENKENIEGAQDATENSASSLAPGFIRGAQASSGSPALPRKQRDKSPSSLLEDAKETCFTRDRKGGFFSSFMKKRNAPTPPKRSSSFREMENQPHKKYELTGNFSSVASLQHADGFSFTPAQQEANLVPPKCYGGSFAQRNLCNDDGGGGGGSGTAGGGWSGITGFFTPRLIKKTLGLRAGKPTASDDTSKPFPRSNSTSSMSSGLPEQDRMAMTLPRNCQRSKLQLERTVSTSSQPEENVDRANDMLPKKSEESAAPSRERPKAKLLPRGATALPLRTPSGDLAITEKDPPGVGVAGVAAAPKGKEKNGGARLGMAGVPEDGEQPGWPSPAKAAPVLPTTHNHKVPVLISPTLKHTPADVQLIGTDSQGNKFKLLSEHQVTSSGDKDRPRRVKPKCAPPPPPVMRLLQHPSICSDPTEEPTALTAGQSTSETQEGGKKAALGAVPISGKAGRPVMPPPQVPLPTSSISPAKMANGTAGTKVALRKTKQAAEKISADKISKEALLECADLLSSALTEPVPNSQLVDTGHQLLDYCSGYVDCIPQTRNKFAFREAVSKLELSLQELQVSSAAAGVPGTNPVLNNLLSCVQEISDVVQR
T10 sequence (P51531 736-901): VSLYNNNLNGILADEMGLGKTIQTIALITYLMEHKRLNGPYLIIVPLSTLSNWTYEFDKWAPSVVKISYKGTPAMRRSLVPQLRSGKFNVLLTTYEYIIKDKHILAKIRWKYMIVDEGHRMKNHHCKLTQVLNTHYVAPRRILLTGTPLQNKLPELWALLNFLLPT

For `Cc1nc(Nc2ncc(C(=O)Nc3c(C)cccc3Cl)s2)cc(N2CCN(CCOC(=O)NCCOCCOCCOCCCCCCCl)CC2)n1` [DA3, 2-(4-(6-((5-((2-chloro-6-methylphenyl)carbamoyl)thiazol-2-yl)amino)-2-methylpyrimidin-4-yl)piperazin-1-yl)ethyl(2-(2-(2-((6-chlorohexyl)oxy)ethoxy)ethoxy)ethyl)carbamate trifluoroacetate salt], in assay [1], the “binding to HaloTag” value is “할로택에 잘 결합한다”. In addition, the GI50 entry in assay [2] and in assay [3] was “서브마이크로몰 범위” throughout.

Consider `Cc1nc(Nc2ncc(C(=O)Nc3c(C)cccc3Cl)s2)cc(N2CCN(CCOC(=O)NCCOCCOCCOCCOCCOCCCCCCCl)CC2)n1` [DA5, 2-(4-(6-((5-((2-chloro-6-methylphenyl)carbamoyl)thiazol-2-yl)amino)-2-methylpyrimidin-4-yl)piperazin-1-yl)ethyl(21-chloro-3,6,9,12,15-pentaoxahenicosyl)carbamate trifluoroacetate salt], for which, in assay [1], the “binding to HaloTag” value was “할로택에 잘 결합한다”. Further, the GI50 entry in [2] and in assay [3] was “서브마이크로몰 범위” each time. Also, the “mitochondrial translocation of HT-TurbID to TOM20-KDABL1” value in [4] was “미토콘드리아 전위가 확인되었다”. The “biotinylation of TOM20-HA-KDABL1 by HT-TurbID” value in assay [5] was “재현 가능한 DA5 의존성 바이오틴화를 관찰”. For the same compound, the biotinylation reaction entry in assay [6] is on record as “강력한 바이오틴화 반응”. Moreover, the “streptavidin-HRP western blot pattern compared with DA and DMSO” value in assay [6] is recorded as “미묘하게 차이가 있었다”. In addition, the “number of proteins reproducibly biotinylated only on DA5 treatment” value in assay [7] (biotin 50 μM 30 min, P < 0.05, Log2(FC) > 1.2) turned out to be 33. For the same compound, the “number of proteins selected as dasatinib interactors (group I)” value in assay [7] (includes SMARCA2) is 34. In addition, the “biotinylation by HT-TurbID in DA5 treated sample” value is listed as “고도로 바이오틴화” in [8] (SMARCA2, K562); “고도로 바이오틴화” in assay [9]; “고도로 바이오틴화” in [10]; “고도로 바이오틴화” in assay [11] (K562); “고도로 바이오틴화” in [12]; “고도로 바이오틴화” in assay [17] (K562). For the same compound, the “fold change (FC) of biotinylation” value in assay [8] (SMARCA2, K562, DA5 treated vs control, highest fold change) is given as 5.14. The biotinylated lysine residues entry in [11] (MS analysis) and in assay [17] (MS analysis) was “다수의 라이신 잔기가 DA5 처리된 HT-TurbID에 의해 바이오틴화 된다” in each case. Moreover, the DA5-dependent biotinylation entry is recorded as “그대로 재현되었다” in assay [13] (BTK, HT-TurbID-MoA instead of HT-TurbID, data not shown) and “그대로 재현되었다” in [14] (CSK, HT-TurbID-MoA instead of HT-TurbID, data not shown). The “co-purification of HT-TurbID with bait protein” value in assay [13] (BTK-mCherry, anti-HA pulldown) is on record as “DA5 처리 샘플에서만 미끼 단백질과 공동 정제되었다”; in assay [14] (CSK-EGFP, anti-HA pulldown), “DA5 처리 샘플에서만 미끼 단백질과 공동 정제되었다”. Besides, the “biotinylation of enriched BTK-mCherry” value in [13] (setting [22]) was “DA5 처리 하에서만 바이오틴화되었다”. Moreover, the “biotinylation of enriched CSK-EGFP” value in assay [14] (setting [22]) was “DA5 처리 하에서만 바이오틴화되었다”. The DA5-dependent translocation result in [15] (BTK, COS-7, data not shown) is recorded as “그대로 재현되었다”; in assay [16] (CSK, COS-7, data not shown), “그대로 재현되었다”. Further, the “Pearson's correlation coefficient” value in [15] (BTK, U2OS, after DA5 treatment) is “급격히 증가”; in assay [16] (CSK, U2OS, after DA5 treatment), “급격히 증가”. The “translocation from cytosol to mitochondria” value in assay [15] (BTK-mCherry, U2OS, 500 nM, 3 h) was “세포질에서 미토콘드리아로 전위되는 것이 확인되었다”; in assay [16] (CSK-EGFP, U2OS, 500 nM, 3 h) it was “세포질에서 미토콘드리아로 전위되는 것이 확인되었다”. Besides, the “biotinylation of KDABL1 by HT-TurbID” value in [18] is “DA5로 처리되었을 때만 KDABL1이 HT-TurbID에 의해 바이오틴화 된다”. Also, the “translocation of KDABL1 from cytosol to mitochondria” value in [19] is given as “KDABL1의 효율적인 전위”.

`Cc1nc(Nc2ncc(C(=O)Nc3c(C)cccc3Cl)s2)cc(N2CCN(CCO)CC2)n1` [다사티닙]: the biotinylation reaction result in assay [6] is listed as “강력한 바이오틴화 반응”. The “physical binding affinity of ABDSMARCA2 for dasatinib” value in [20] was “물리적 결합 친화성을 가지고 있으며”. Also, the “binding affinity for dasatinib” value in assay [21] is “다사티닙에 대한 결합 친화력이 있음”.
